Tests used:
[1] = tested on: mice with STZ-induced diabetes; assay: Effect of LX2761 on glycemic control and cecal pH in mice with STZ-induced diabetes; type: in vivo; conditions: adult male mice with well-established diabetes, single daily doses 1.5 or 3 mg/kg by oral gavage
Description: FIGS. 1A-1F present data showing the effect of LX2761 on glycemic control in mice with STZ-induced diabetes. […] Glucose excursions among groups were compared as glucose AUC0-120 minutes values. […] On day 49, the final study day, samples were obtained to measure FIG. 1C fasting blood glucose; FIG. 1D plasma tGLP-1; and FIG. 1E cecal glucose, reported as the total amount of glucose recovered.
This study evaluated the effect of orally administered LX2761 on glycemic control in preclinical models.
Mice and Rats. All studies were performed at Lexicon Pharmaceuticals, Inc., in strict accordance with the recommendations in the Guide for the Care and Use of Laboratory Animals of the National institutes of Health. The protocols for all studies were approved by the Lexicon Institutional Animal Care and Use Committee (OLAW Assurance Number A4152-01; AAALAC International Accreditation Number 001025). General methods for mouse and rat care have been described elsewhere. […] For all in vivo studies, mice and rats were fed HGD because glucose must be a major source of dietary calories if the effects of SGLT1 inhibition on glucose homeostasis are to be evaluated. […]
Glucose-Containing Meal Challenge. […] Vehicle or LX2761 was administered by oral gavage at 8:00 AM once daily for 4 consecutive days; body weight and food consumption were measured daily. […]

[2] = tested on: subjects with type 2 diabetes (T2DM); assay: Phase 1 multiple ascending dose clinical study: safety and tolerability; type: in vivo, human
Description: (§1) A phase 1 multiple ascending dose (MAD) clinical study of LX2761 in otherwise healthy subjects with type 2 diabetes (T2DM) was conducted, following an earlier, single ascending dose study of the compound's safety and tolerability.
(§2) This study evaluated the safety and tolerability of orally administered LX2761 given qd (i.e., once daily) or bid (i.e., twice daily) for eight days, over a range of ascending multiple dose levels in subjects with T2DM. As secondary objectives, the study evaluated the PD and PK of LX2761. Of the 51 subjects enrolled in the study, 27 (52.9%) were male and 24 (47.1%) were female. Subject ages ranged from 41 to 65 years, with BMIs ranging from 20.1 to 39.8 kg/m^2.
(§3) Subjects taking LX2761 were grouped into five cohorts: Cohort A=LX2761 dosed 0.4 mg qd for 4 days followed by LX2761 dosed 0.6 mg qd for 4 days; Cohort A2=LX2761 dosed 0.2 mg bid for 8 days; Cohort B=LX2761 dosed 0.6 mg qd for 4 days followed by LX2761 dosed 0.8 mg qd for 4 days; Cohort C=LX2761 dosed 0.6 mg qd for 4 days followed by LX2761 dosed 1.0 mg qd for 4 days; Cohort C1=LX2761 dosed 0.4 mg bid for 8 days.
(§4) Reporting of TEAEs of diarrhea was not based on subject self-reporting. Given the mechanism of action of LX2761, osmotic diarrhea was expected to occur in all subjects receiving LX2761 based on either stool form or daily frequency. […] The study stopping rules defined gradation of diarrhea as follows: diarrhea of moderate intensity was defined as an increase of 4 to 5 stools/day over the normal pre-study count with moderate cramping that limits usual daily activity or may require simple therapeutic intervention; diarrhea of severe intensity was defined as an increase of 6 to 8 stools/day over the normal pre-study count with severe cramping or incontinence that prohibits usual daily activities or requires systemic drug therapy or other therapeutic intervention.

[3] = biological target: T1, SGLT1 transporter (Homo sapiens, UniProt P13866); assay: Phase 1 multiple ascending dose clinical study: pharmacodynamics; type: in vivo
T1 construct: from tissue; host or cells: intestine of human subjects with T2DM (in vivo clinical study)
T1 sequence (P13866 1-664): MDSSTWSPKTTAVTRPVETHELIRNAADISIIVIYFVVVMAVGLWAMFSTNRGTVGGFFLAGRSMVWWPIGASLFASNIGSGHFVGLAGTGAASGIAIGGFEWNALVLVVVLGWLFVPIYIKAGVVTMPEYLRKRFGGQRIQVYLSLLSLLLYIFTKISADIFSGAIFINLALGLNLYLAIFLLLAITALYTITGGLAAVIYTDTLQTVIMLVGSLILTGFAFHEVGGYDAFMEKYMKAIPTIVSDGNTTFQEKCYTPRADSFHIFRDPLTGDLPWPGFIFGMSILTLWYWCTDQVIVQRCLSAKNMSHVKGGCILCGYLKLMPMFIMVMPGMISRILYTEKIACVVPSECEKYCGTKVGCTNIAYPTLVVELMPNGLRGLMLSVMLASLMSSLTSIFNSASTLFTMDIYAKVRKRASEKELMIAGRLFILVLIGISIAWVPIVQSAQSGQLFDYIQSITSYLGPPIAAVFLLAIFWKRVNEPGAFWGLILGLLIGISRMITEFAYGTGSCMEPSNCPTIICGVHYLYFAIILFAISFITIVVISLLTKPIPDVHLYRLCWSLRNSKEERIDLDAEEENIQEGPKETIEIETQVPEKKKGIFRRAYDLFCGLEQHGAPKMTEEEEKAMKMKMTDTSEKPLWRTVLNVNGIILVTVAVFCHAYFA
Description: A phase 1 multiple ascending dose (MAD) clinical study of LX2761 in otherwise healthy subjects with type 2 diabetes (T2DM) was conducted, following an earlier, single ascending dose study of the compound's safety and tolerability. This study evaluated the safety and tolerability of orally administered LX2761 given qd (i.e., once daily) or bid (i.e., twice daily) for eight days, over a range of ascending multiple dose levels in subjects with T2DM. As secondary objectives, the study evaluated the PD and PK of LX2761. […] Subjects taking LX2761 were grouped into five cohorts: Cohort A=LX2761 dosed 0.4 mg qd for 4 days followed by LX2761 dosed 0.6 mg qd for 4 days; Cohort A2=LX2761 dosed 0.2 mg bid for 8 days; Cohort B=LX2761 dosed 0.6 mg qd for 4 days followed by LX2761 dosed 0.8 mg qd for 4 days; Cohort C=LX2761 dosed 0.6 mg qd for 4 days followed by LX2761 dosed 1.0 mg qd for 4 days; Cohort C1=LX2761 dosed 0.4 mg bid for 8 days.

[4] = Phase 1 multiple ascending dose clinical study: pharmacokinetics; type: in vivo, human
Description: as §1, §2, §3

[5] = tested on: subjects with type 2 diabetes (T2DM); assay: Phase 1 multiple ascending dose clinical study: bowel movement frequency and Bristol Stool Form (BSF) Scale; type: in vivo, human
Description: FIG. 2 provides a table with baseline Bristol Stool Form (BSF) Scale data for subjects taking placebo or LX2761 in a multiple ascending dose study.
as §1, §2, §3, §4

[6] = rodents and humans; cited from earlier work
[7] = T2DM subjects, oral qd or bid for eight days

## CS[C@H]1O[C@@H](c2ccc(C)c(Cc3ccc(CCCC(=O)NC(C)(C)C(=O)NCCN(C)C)cc3)c2)[C@H](O)[C@@H](O)[C@@H]1O [LX2761, N-(1-((2-(dimethylamino)ethyl)-amino)-2-methyl-1-oxopropan-2-yl)-4-(4-(2-methyl-5-((2S,3R,4R,5S,6R)-3,4,5-trihydroxy-6-(methylthio)tetrahydro-2H-pyran-2-yl)benzyl)phenyl)butanamide]
[1]; FIG. 1
  glycemic control: improved glycemic control
[1]; FIG. 1F
  cecal pH: reduced cecal pH
[2]; [7]
  changes in clinical laboratory evaluations, vital signs, physical examination findings, or ECG parameters: No clinically significant changes
[2]; all reported TEAEs
  intensity of reported TEAEs: mild or moderate
[2]; human clinical trial, low doses
  severe cramping or other adverse effects associated with existing HE agents such as lactulose: generally not attended by severe cramping or other adverse effects
[2]; human, in vivo
  severe TEAEs, SAEs, deaths, or discontinuations due to TEAEs: No severe TEAEs, SAEs (serious adverse events), deaths, or discontinuations due to TEAEs occurred
[2]; mainly nausea, vomiting, and abdominal pain
  most frequently reported TEAEs: gastrointestinal (GI) events
[2]; of 25 TEAEs, reported by 6 subjects treated with LX2761
  number of TEAEs assessed as moderate in intensity: 9 TEAEs
[3]; [7]
  peptide YY (PYY) after dosing: increases
  total glucagon-like peptide 1 (GLP-1) after dosing: increases
[3]; all LX2761 cohorts, at some time points
  least squares (LS) mean UGE0-24 versus Baseline: decreased from Baseline
[3]; any LX2761 cohort
  difference from placebo in change from Baseline in postprandial glucose (PPG) concentration AUC0-3: No statistically significant differences from placebo
  difference from placebo in change from Baseline in urinary glucose excretion from 0 to 24 hours (UGE0-24): No statistically significant differences from placebo
[3]; each LX2761 cohort except Cohort A2, at most assessment time points
  PPG concentration AUC0-3 versus Baseline: reduced from Baseline
[4]; after the first dose
  concentrations after the first dose (exposure): mostly BLQ
[4]; ascending dose levels, moderate to high variability
  increase in exposure (AUC and Cmax): generally dose-related
[4]; oral solution
  absorption: rapid absorption
[5]; all LX2761 cohorts but Cohort B, on at least one day through Day 8
  subjects with BMs graded as BSF Scale Type 6 or 7: ≥ 50%
[5]; all LX2761 cohorts, on at least one day through Day 8
  increase in mean stool frequency per day from Baseline: > 0.5 BM
[5]; all LX2761 cohorts, through Day 8
  frequency of subjects with 2 or 3 BMs graded as BSF Scale Type 6 or 7 on a single day, versus placebo-treated subjects: higher
[5]; human, in vivo
  change in BMs meeting study criteria of moderate or severe diarrhea: No change in BMs meeting these criteria of moderate or severe diarrhea was reported
[6]
  systemic exposure: very low systemic exposure

Source: patent publication US20250170157A1, “METHODS AND COMPOSITIONS FOR THE TREATMENT OF HEPATIC ENCEPHALOPATHY” (LEXICON PHARMACEUTICALS, INC., priority 2023, published 2025)
